Tests used:
Format in all cases: cell-based
Human Nav1.8 = target: T1, Human Nav1.8 (Homo sapiens, UniProt Q9Y5Y9); experiment: VIPR Assay for Nav1.8 Compounds (FRET membrane potential, deltamethrin opener); details: VIPR FRET membrane potential assay, deltamethrin opener; average of replicates; read-out: Nav1.8 IC50
T1 construct: expressed in transfected cells; host or cells: HEK293

[1] = tested on: tetrodotoxin-sensitive voltage-gated sodium channels including NaV1.2, NaV1.3 and NaV1.7; experiment: TTX-S Assay (VIPR, SHSY-5Y cell line, veratridine opener); details: read-out: TTX-S IC50, veratridine 50 μM opener, average of replicates
Human Nav1.5 = target: T2, Human Nav1.5 (Homo sapiens, UniProt Q14524); experiment: Nav1.5 Assay (VIPR, HEK293 cells); details: HEK293 cells expressing Human Nav1.5; average of replicates; read-out: Nav1.5 IC50
T2 construct: expressed in transfected cells; host or cells: HEK293
T2 sequence (Q14524 whole entry): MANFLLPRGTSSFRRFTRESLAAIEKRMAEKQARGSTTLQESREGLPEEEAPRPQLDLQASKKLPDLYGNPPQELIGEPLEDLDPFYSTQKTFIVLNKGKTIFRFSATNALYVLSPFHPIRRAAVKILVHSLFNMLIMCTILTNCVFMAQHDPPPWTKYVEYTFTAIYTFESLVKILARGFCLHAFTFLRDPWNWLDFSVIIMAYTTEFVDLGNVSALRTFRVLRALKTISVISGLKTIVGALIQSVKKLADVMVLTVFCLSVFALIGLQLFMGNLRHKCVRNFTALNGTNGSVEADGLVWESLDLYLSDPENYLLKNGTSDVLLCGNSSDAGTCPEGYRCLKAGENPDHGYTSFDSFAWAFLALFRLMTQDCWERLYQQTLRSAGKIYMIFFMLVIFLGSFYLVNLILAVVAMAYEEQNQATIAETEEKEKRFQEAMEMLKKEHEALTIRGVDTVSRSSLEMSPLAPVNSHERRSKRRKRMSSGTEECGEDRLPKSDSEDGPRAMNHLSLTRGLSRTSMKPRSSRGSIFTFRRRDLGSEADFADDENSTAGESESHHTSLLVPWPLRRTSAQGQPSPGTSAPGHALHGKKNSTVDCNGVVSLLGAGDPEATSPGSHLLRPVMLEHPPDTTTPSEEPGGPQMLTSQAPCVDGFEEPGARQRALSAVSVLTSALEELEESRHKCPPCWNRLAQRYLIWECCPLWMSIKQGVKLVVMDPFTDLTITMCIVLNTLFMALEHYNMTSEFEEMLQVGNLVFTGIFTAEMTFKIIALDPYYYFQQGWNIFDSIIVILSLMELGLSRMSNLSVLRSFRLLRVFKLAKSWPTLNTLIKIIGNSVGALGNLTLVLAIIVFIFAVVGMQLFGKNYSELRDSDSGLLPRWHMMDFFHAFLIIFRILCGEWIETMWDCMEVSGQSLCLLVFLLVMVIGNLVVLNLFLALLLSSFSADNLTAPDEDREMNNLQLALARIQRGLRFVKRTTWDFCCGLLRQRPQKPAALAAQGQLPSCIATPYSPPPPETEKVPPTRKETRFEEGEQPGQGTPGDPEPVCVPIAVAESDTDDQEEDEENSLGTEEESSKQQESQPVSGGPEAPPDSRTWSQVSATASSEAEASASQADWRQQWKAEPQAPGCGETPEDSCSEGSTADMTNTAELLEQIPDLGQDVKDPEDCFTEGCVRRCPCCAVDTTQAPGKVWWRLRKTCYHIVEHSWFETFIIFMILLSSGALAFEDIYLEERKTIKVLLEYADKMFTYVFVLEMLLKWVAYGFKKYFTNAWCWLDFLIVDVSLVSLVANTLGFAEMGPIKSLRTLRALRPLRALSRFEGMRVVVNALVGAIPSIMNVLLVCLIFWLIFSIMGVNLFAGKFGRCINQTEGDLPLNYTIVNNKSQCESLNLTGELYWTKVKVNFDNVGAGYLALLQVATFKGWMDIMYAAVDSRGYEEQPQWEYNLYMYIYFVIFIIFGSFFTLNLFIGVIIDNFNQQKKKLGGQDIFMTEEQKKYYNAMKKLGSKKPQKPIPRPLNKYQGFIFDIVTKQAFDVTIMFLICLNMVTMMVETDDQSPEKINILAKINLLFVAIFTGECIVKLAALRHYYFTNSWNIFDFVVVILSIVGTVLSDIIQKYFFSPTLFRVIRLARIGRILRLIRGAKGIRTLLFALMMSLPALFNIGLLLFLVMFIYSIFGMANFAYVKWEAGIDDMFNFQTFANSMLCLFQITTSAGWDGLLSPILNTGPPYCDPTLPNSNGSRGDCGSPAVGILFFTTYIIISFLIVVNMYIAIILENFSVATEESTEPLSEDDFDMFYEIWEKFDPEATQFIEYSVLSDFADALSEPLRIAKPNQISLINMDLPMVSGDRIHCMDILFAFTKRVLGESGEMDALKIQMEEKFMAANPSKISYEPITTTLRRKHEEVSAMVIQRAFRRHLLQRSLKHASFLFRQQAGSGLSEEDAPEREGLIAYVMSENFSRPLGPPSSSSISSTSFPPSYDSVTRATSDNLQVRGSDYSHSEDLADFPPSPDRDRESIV
Procedure: The Nav1.5 assay is performed in HEK293 cells expressing Human Nav1.5 in the same way as the Nav1.8 assay.
Where replicate experiments were conducted resulting in multiple sets of data for a test compound, the data presented represent the average value from all replicate experiments.

T1 sequence (Q9Y5Y9 whole entry): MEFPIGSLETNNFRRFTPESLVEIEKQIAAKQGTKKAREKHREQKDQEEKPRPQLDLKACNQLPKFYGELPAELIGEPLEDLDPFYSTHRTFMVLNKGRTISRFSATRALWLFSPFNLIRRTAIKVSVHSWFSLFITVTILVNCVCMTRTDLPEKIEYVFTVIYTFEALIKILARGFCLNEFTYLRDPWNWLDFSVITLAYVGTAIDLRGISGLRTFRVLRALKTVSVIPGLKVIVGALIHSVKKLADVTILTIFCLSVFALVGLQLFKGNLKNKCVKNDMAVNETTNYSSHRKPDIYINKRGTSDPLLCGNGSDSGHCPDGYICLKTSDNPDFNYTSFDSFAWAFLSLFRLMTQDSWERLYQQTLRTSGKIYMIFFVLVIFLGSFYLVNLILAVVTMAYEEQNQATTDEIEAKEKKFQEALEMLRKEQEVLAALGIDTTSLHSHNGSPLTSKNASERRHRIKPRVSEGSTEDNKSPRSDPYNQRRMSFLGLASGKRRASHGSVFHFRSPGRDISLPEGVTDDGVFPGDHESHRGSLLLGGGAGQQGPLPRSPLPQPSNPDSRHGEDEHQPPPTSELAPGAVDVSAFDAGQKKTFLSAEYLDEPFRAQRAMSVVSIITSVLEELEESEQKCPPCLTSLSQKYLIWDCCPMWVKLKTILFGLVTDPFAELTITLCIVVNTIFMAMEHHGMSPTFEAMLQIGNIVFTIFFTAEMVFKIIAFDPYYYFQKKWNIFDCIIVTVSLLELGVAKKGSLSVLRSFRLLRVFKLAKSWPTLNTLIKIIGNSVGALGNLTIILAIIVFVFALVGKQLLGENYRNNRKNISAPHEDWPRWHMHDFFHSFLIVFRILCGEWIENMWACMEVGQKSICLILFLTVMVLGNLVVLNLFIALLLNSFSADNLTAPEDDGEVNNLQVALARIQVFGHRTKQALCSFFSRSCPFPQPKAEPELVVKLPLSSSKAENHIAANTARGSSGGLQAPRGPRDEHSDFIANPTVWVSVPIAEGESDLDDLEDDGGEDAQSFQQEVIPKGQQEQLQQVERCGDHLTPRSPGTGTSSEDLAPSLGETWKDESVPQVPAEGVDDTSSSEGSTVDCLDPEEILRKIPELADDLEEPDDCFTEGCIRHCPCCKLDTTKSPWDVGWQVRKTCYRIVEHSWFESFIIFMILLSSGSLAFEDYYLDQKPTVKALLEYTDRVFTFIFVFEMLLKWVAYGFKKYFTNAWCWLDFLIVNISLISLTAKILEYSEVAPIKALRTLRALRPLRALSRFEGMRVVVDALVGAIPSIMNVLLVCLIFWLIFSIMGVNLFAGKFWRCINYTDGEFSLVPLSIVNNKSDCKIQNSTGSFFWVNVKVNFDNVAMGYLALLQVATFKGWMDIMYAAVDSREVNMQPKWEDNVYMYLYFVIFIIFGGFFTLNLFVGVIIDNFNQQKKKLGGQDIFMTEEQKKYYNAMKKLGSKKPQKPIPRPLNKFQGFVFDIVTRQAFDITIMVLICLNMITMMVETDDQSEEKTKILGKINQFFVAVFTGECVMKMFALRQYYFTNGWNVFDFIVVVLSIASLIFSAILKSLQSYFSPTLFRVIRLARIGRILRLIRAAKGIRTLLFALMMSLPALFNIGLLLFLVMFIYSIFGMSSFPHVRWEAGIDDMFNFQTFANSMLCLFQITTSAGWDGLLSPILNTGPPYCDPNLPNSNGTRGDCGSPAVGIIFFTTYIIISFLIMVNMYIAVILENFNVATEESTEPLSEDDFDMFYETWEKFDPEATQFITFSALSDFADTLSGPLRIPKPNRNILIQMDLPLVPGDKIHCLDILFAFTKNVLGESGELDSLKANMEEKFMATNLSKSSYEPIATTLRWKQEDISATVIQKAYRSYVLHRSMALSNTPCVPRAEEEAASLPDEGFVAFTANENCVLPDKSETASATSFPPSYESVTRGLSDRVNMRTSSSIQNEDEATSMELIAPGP

| SMILES | IC50 (Human Nav1.8) [µM] | IC50 [1] [µM] | IC50 (Human Nav1.5) [µM] |
| --- | --- | --- | --- |
| Cc1oncc1C(=O)Nc1ccc(-c2ccccc2Cl)c(N)n1 [Example 20, N-[6-Amino-5-(2-chlorophenyl)pyridin-2-yl]-5-methylisoxazole-4-carboxamide] | 1 | 14 | 17 |
| Cc1oncc1C(=O)Nc1ccc(-c2ccccc2OC(F)(F)F)c(N)n1 [Example 23, N-{6-Amino-5-[2-(trifluoromethoxy)phenyl]pyridin-2-yl}-5-methylisoxazole-4-carboxamide] | 1.6 | 9.4 | 17 |
| COc1ccc(Cl)c(-c2ccc(NC(=O)c3conc3C)nc2N)c1 [Example 24, N-[6-Amino-5-(2-chloro-5-methoxyphenyl)pyridin-2-yl]-3-methylisoxazole-4-carboxamide] | 0.44 | 11 | 8.5 |
| Cc1nocc1C(=O)Nc1ccc(-c2ccccc2Cl)c(N)n1 [Example 26, N-[6-Amino-5-(2-chlorophenyl)pyridin-2-yl]-3-methylisoxazole-4-carboxamide] | 0.56 | 8.5 | 11 |
| COc1cc(Cl)cc(-c2ccc(NC(=O)c3conc3C)nc2N)c1Cl [Example 27, N-[6-Amino-5-(2,5-dichloro-3-methoxyphenyl)pyridin-2-yl]-3-methylisoxazole-4-carboxamide] | 0.37 | 3.2 | 10 |
| COc1cc(Cl)c(Cl)c(-c2ccc(NC(=O)c3conc3C)nc2N)c1 [Example 29, N-[6-Amino-5-(2,3-dichloro-5-methoxyphenyl)pyridin-2-yl]-3-methylisoxazole-4-carboxamide] | 0.55 | 8.2 | 6.4 |
| Cc1nocc1C(=O)Nc1ccc(-c2cc(Cl)cc3c2OCCO3)c(N)n1 [Example 30, N-[6-Amino-5-(7-chloro-2,3-dihydro-1,4-benzodioxin-5-yl)pyridin-2-yl]-3-methylisoxazole-4-carboxamide] | 1.3 | 28 | 16 |
| Nc1nc(NC(=O)c2ccno2)ccc1-c1cc(Cl)ccc1Cl [Example 75, N-[6-Amino-5-(2,5-dichlorophenyl)pyridin-2-yl]isoxazole-5-carboxamide] | 1.4 | 24 | – |
| COc1ccc(Cl)c(-c2ccc(NC(=O)c3ccno3)nc2N)c1 [Example 76, N-[6-Amino-5-(2-chloro-5-methoxyphenyl)pyridin-2-yl]isoxazole-5-carboxamide] | 0.86 | 6.5 | – |
| Nc1nc(NC(=O)c2ccno2)ccc1-c1ccccc1Cl [Example 77, N-[6-Amino-5-(2-chlorophenyl)pyridin-2-yl]isoxazole-5-carboxamide] | 5 | > 32 | – |
| Cn1nncc1C(=O)Nc1ccc(-c2ccc(Cl)cc2Cl)c(N)n1 [Example 79, N-[6-Amino-5-(2,4-dichlorophenyl)pyridin-2-yl]-1-methyl-1H-1,2,3-triazole-5-carboxamide] | 5.8 | 22 | – |
| Nc1nc(NC(=O)c2ccccc2)ccc1-c1cc(Cl)ccc1Cl [Example 97] | 1.9 | 5.4 | – |
| Nc1nc(NC(=O)c2ccccc2)ccc1-c1ccccc1Cl [Example 98] | 2 | 10 | – |
| Nc1nc(NC(=O)c2ccc(Cl)cc2)ccc1-c1cc(Cl)ccc1Cl [Example 100] | 6.3 | 4.4 | – |
| Nc1nc(NC(=O)c2ccccc2Cl)ccc1-c1cc(Cl)ccc1Cl [Example 101] | 3.7 | 6.2 | – |
| COc1cccc(C(=O)Nc2ccc(-c3cc(Cl)ccc3Cl)c(N)n2)c1 [Example 102] | 2.3 | 5.4 | – |
| COc1ccc(C(=O)Nc2ccc(-c3cc(Cl)ccc3Cl)c(N)n2)cc1OC [Example 103] | 4.1 | 8.4 | – |
| COc1cc(OC)cc(C(=O)Nc2ccc(-c3cc(Cl)ccc3Cl)c(N)n2)c1 [Example 104] | 3.3 | 8 | – |
| COc1ccc(C(=O)Nc2ccc(-c3cc(Cl)ccc3Cl)c(N)n2)c(OC)c1 [Example 105] | 3.5 | 7.7 | – |
